Tested on: HCV genotype 1b RNA replication in Huh-7 cells (subgenomic HCV replicon)
Assay: HCV subgenomic replicon assay, inhibition of HCV RNA replication
Format: cell-based, Hepatitis C virus
Settings: HCV genotype 1b replicon, Huh-7 cells

Structure (SMILES) | anti-HCV activity: none at concentration up to
Nc1nc2c(ncn2[C@@H]2O[C@H](CO)[C@@H](O)[C@@]2(F)Cl)c(=O)[nH]1 [Compound 48, 2-Amino-9-((2R,3R,4R,5R)-3-chloro-3-fluoro-4-hydroxy-5-(hydroxymethyl)tetrahydrofuran-2-yl)-1,9-dihydro-6H-purin-6-one] | > 10 µM
Nc1nc2c(ncn2[C@@H]2O[C@H](CO)[C@@H](O)[C@@]2(F)Br)c(=O)[nH]1 [Compound 49, 2-amino-9-((2R,3R,4R,5R)-3-bromo-3-fluoro-4-hydroxy-5-(hydroxymethyl)tetrahydrofuran-2-yl)-1,9-dihydro-6H-purin-6-one] | > 10 µM
CC(C)OC(=O)[C@H](C)NP(=O)(OC[C@H]1O[C@@H](n2cnc3c(=O)[nH]c(N)nc32)[C@](F)(Cl)[C@@H]1O)Oc1ccccc1 (stereo partly drawn) [Compound 50, Isopropyl ((((2R,3R,4R,5R)-5-(2-amino-6-oxo-1,6-dihydro-9H-purin-9-yl)-4-chloro-4-fluoro-3-hydroxytetrahydrofuran-2-yl)methoxy)(phenoxy)phosphoryl)-L-alaninate] | > 10 µM
CC(C)OC(=O)[C@H](C)N[P@](=O)(OC[C@H]1O[C@@H](n2cnc3c(=O)[nH]c(N)nc32)[C@](F)(Br)[C@@H]1O)Oc1ccccc1 [Compound 51, Isopropyl ((((2R,3R,4R,5R)-5-(2-amino-6-oxo-1,6-dihydro-9H-purin-9-yl)-4-bromo-4-fluoro-3-hydroxytetrahydrofuran-2-yl)methoxy)(phenoxy)phosphoryl)-L-alaninate] | > 10 µM

Same assay, conditions: HCV replicon; statement in conclusion

Structure (SMILES) | anti-HCV activity (in words)
CC(C)OC(=O)[C@H](C)NP(=O)(OC[C@H]1O[C@@H](n2ccc(=O)[nH]c2=O)[C@](F)(Cl)[C@@H]1O)Oc1ccccc1 (stereo partly drawn) [Compound 19, Isopropyl ((((2R,3R,4R,5R)-4-chloro-5-(2,4-dioxo-3,4-dihydropyrimidin-1(2H)-yl)-4-fluoro-3-hydroxytetrahydrofuran-2-yl)methoxy)(phenoxy)phosphoryl)-L-alaninate] | low to sub-micromolar range
CC(C)OC(=O)[C@H](C)NP(=O)(OC[C@H]1O[C@@H](n2ccc(=O)[nH]c2=O)[C@](F)(Br)[C@@H]1O)Oc1ccccc1 (stereo partly drawn) [Compound 20, Isopropyl ((((2R,3R,4R,5R)-4-bromo-5-(2,4-dioxo-3,4-dihydropyrimidin-1(2H)-yl)-4-fluoro-3-hydroxytetrahydrofuran-2-yl)methoxy)(phenoxy)phosphoryl)-L-alaninate] | low to sub-micromolar range
Nc1ccn([C@@H]2O[C@H](CO)[C@@H](O)[C@@]2(F)Br)c(=O)n1 [Compound 27, 4-Amino-1-((2R,3R,4R, 5R)-3-bromo-3-fluoro-4-hydroxy-5-(hydroxymethyl)tetrahydrofuran-2-yl)pyrimidin-2(lH)-one] | low to sub-micromolar range
CC(C)OC(=O)[C@H](C)NP(=O)(OC[C@H]1O[C@@H](n2ccc(N)nc2=O)[C@](F)(Br)[C@@H]1O)Oc1ccccc1 (stereo partly drawn) [Compound 32, Isopropyl ((((2R,3R,4R,5R)-5-(4-amino-2-oxopyrimidin-1(2H)-yl)-4-bromo-4-fluoro-3-hydroxytetrahydrofuran-2-yl)methoxy)(phenoxy)phosphoryl)-L-alaninate] | low to sub-micromolar range
CC(C)OC(=O)[C@H](C)NP(=O)(OC[C@H]1O[C@@H](n2ccc(N)nc2=O)[C@](F)(Cl)[C@@H]1O)Oc1ccccc1 (stereo partly drawn) [Compound 35, Isopropyl ((((2R,3R,4R,5R)-5-(4-amino-2-oxopyrimidin-1(2H)-yl)-4-chloro-4-fluoro-3-hydroxytetrahydrofuran-2-yl)methoxy) (phenoxy)phosphoryl)-L-alaninate] | low to sub-micromolar range
CC(C)OC(=O)[C@H](C)NP(=O)(OC[C@H]1O[C@@H](n2cnc3c(N)ncnc32)[C@](F)(Cl)[C@@H]1O)Oc1ccccc1 (stereo partly drawn) [Compound 42, Isopropyl ((((2R,3R,4R,5R)-5-(6-amino-9H-purin-9-yl)-4-chloro-4-fluoro-3-hydroxytetrahydrofuran-2-yl)methoxy) (phenoxy)phosphoryl)-L-alaninate] | low to sub-micromolar range

Same assay, conditions: Hepatitis C virus, GETYPE1B, Huh-7, read-out: Anti-HCV activity EC90

Structure (SMILES) | EC90
Nc1ccn([C@@H]2O[C@H](CO)[C@@H](O)[C@@]2(F)Cl)c(=O)n1 [Compound 26, 4-Amino-1-((2R,3R,4R,5R)-3-chloro-3-fluoro-4-hydroxy-5-(hydroxymethyl)tetrahydrofuran-2-yl)pyrimidin-2(1H)-one] | > 10 µM
Nc1ncnc2c1ncn2[C@@H]1O[C@H](CO)[C@@H](O)[C@@]1(F)Cl [Compound 40, (2R, 3R, 4R, 5R)-5-(6-Amino-9H-purin-9-yl)-4-chloro-4-fluoro-2-(hydroxymethyl)tetrahydrofuran-3-ol] | > 10 µM
Nc1ncnc2c1ncn2[C@@H]1O[C@H](CO)[C@@H](O)[C@@]1(F)Br [Compound 41, (2R, 3R, 4R, 5R)-5-(6-Amino-9H-purin-9-yl)-4-bromo-4-fluoro-2-(hydroxymethyl)tetrahydrofuran-3-ol] | > 10 µM
CC(C)OC(=O)[C@H](C)NP(=O)(OC[C@H]1O[C@@H](n2cnc3c(N)ncnc32)[C@](F)(Br)[C@@H]1O)Oc1ccccc1 (stereo partly drawn) [Compound 43, Isopropyl ((((2R,3R,4R,5R)-5-(6-amino-9H-purin-9-yl)-4-bromo-4-fluoro-3-hydroxytetrahydrofuran-2-yl)methoxy)(phenoxy)phosphoryl)-L-alaninate] | > 10 µM
Nc1nc2c(ncn2[C@@H]2O[C@H](CO)[C@@H](O)[C@@]2(F)Br)c(=O)[nH]1 [Compound 49, 2-amino-9-((2R,3R,4R,5R)-3-bromo-3-fluoro-4-hydroxy-5-(hydroxymethyl)tetrahydrofuran-2-yl)-1,9-dihydro-6H-purin-6-one] | > 10 µM
CC(C)OC(=O)[C@H](C)NP(=O)(OC[C@H]1O[C@@H](n2cnc3c(=O)[nH]c(N)nc32)[C@](F)(Cl)[C@@H]1O)Oc1ccccc1 (stereo partly drawn) [Compound 50, Isopropyl ((((2R,3R,4R,5R)-5-(2-amino-6-oxo-1,6-dihydro-9H-purin-9-yl)-4-chloro-4-fluoro-3-hydroxytetrahydrofuran-2-yl)methoxy)(phenoxy)phosphoryl)-L-alaninate] | > 10 µM

Reference: PMC6425950 (Bioorganic & medicinal chemistry, 2019)
